Reference: ChEMBL document CHEMBL2380300, “Identification of new peptide amides as selective cathepsin L inhibitors: the first step towards selective irreversible inhibitors?” (Bioorg Med Chem Lett, 2013)

How the values were obtained:
Cathepsin B = Cathepsin B (Homo sapiens, UniProt P07858); assay: Irreversible inhibition of recombinant cathepsin-B (unknown origin) using Z-Arg-Arg-AMC as substrate
Procathepsin L = Procathepsin L (Homo sapiens, UniProt P07711); assay: Irreversible inhibition of recombinant cathepsin-L (unknown origin) using Z-Phe-Arg-AMC as substrate
Procathepsin L, sequence (P07711 114-333 limits assumed): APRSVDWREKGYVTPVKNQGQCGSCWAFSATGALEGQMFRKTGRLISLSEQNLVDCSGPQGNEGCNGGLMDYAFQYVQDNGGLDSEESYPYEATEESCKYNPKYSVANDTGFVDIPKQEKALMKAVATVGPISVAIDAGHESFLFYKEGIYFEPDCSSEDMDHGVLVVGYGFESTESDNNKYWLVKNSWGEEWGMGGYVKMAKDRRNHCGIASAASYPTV

Homo sapiens = species on record: Homo sapiens; assay: Selectivity ratio of Ka for recombinant cathepsin-L (unknown origin) to Ka for recombinant cathepsin-B (unknown origin)

Row | SMILES | Ka (Cathepsin B) | Ka (Procathepsin L) | Ratio (Homo sapiens)
1 | Cc1cccc(C)c1C(=O)OCC(=O)[C@H](CCCCN)NC(=O)[C@H](Cc1ccccc1)NC(=O)[C@H](CCCNC(=N)N)NC(=O)OCc1ccccc1 | 0.76 ×10⁵ /s/M | 8.75 ×10⁵ /s/M | 11.5
2 | Cc1cccc(C)c1C(=O)OCC(=O)[C@H](CCCCN)NC(=O)[C@H](Cc1ccccc1)NC(=O)OCc1ccccc1 | 0.38 ×10⁵ /s/M | 2.96 ×10⁵ /s/M | 7.8
3 | Cc1cccc(C)c1C(=O)OCC(=O)[C@H](CCCCN)NC(=O)[C@H](Cc1ccccc1)NC(=O)[C@H](CCCCN)NC(=O)OCc1ccccc1 | 8.22 ×10⁵ /s/M | 2.52 ×10⁵ /s/M | 0.3
4 | Cc1cccc(C)c1C(=O)OCC(=O)[C@H](CCCCN)NC(=O)[C@H](Cc1ccccc1)NC(=O)[C@H](CC(C)C)NC(=O)OCc1ccccc1 | 1.36 ×10⁵ /s/M | 2.69 ×10⁵ /s/M | 2
5 | Cc1cccc(C)c1C(=O)OCC(=O)[C@H](CCCCN)NC(=O)[C@H](Cc1ccccc1)NC(=O)[C@H](Cc1c[nH]c2ccccc12)NC(=O)OCc1ccccc1 | 0.57 ×10⁵ /s/M | 3.92 ×10⁵ /s/M | 6.9
